Assay results published in ChEMBL document CHEMBL1201862, “PubChem BioAssay data set” (2004).
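Exposure lasted 48 hours, with cells grown in 96-well plates and compounds tested at five concentrations. At the GI50, growth is halved.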 Calls of active or inactive are those of the source. Cut-off read from the data, not from the text of the source: active = GI50 up to about 1.1 µM and inactive = higher.

Experiments:
Experiment in all cases: NCI anticancer screen, dose series, 48 h
OVCAR-8 = tested on: OVCAR-8
SF-268 = tested on: SF-268
SK-MEL-5 = tested on: SK-MEL-5
U-251 = tested on: U-251
NCI-H460 = tested on: NCI-H460
COLO 205 = tested on: COLO 205
MOLT-4 = tested on: MOLT-4
SNB-75 = tested on: SNB-75
UO-31 = tested on: UO-31
UACC-257 = tested on: UACC-257
M14 = tested on: M14
786-0 = tested on: 786-0
ACHN = tested on: ACHN
HL-60 = tested on: HL-60
CCRF-CEM = tested on: CCRF-CEM
RPMI-8226 = tested on: RPMI-8226
HCT-116 = tested on: HCT-116
Malme-3M = tested on: Malme-3M
LOX IMVI = tested on: LOX IMVI

Measured: GI50

Nc1ccc(S(=O)(=O)Nc2nc3ccccc3nc2N2CCCCCC2)cc1
inactive: OVCAR-8 31.9 µM | SF-268 45.9 µM | SK-MEL-5 16.1 µM | U-251 20.2 µM | NCI-H460 23.4 µM | COLO 205 16.6 µM | MOLT-4 16 µM | SNB-75 50.8 µM | UO-31 13.2 µM | UACC-257 32.9 µM | M14 37.2 µM | 786-0 30.2 µM | ACHN 35.9 µM | HL-60 19.1 µM | CCRF-CEM 33.5 µM | RPMI-8226 14.6 µM | HCT-116 16.6 µM | Malme-3M 34.4 µM | LOX IMVI 17.3 µM

O=C(CC(=O)c1ccc([N+](=O)[O-])cc1)C(=O)Nc1nccs1
inactive: SF-268 > 100 µM | SK-MEL-5 > 100 µM | U-251 > 100 µM | NCI-H460 > 100 µM | MOLT-4 > 100 µM | SNB-75 > 100 µM | UO-31 > 100 µM | M14 > 100 µM | 786-0 > 100 µM | ACHN > 100 µM | HL-60 > 100 µM | CCRF-CEM > 100 µM | RPMI-8226 > 100 µM | Malme-3M > 100 µM | LOX IMVI > 100 µM

CC(C)(C)c1cc(S(=O)(=O)O)c2oc(-c3ccccc3)cc(=O)c2c1
inactive: OVCAR-8 > 100 µM | SF-268 > 100 µM | SK-MEL-5 > 100 µM | U-251 > 100 µM | NCI-H460 > 100 µM | COLO 205 > 100 µM | MOLT-4 > 100 µM | SNB-75 > 100 µM | UO-31 > 100 µM | UACC-257 > 100 µM | 786-0 > 100 µM | ACHN > 100 µM | HL-60 > 100 µM | CCRF-CEM > 100 µM | RPMI-8226 > 100 µM | HCT-116 > 100 µM | Malme-3M > 100 µM | LOX IMVI > 100 µM

CCOC(=O)[C@@]12CCC(C1=O)[C@](C)(O)C[C@@H]2c1ccccc1
inactive: OVCAR-8 54.8 µM | SF-268 36.2 µM | SK-MEL-5 35.2 µM | U-251 33.7 µM | NCI-H460 39.2 µM | COLO 205 44.4 µM | MOLT-4 30.5 µM | SNB-75 33 µM | UO-31 > 100 µM | UACC-257 75 µM | M14 27.7 µM | 786-0 23.1 µM | ACHN 53.2 µM | HL-60 24.3 µM | CCRF-CEM 79.4 µM | HCT-116 32.6 µM | Malme-3M 37.6 µM | LOX IMVI 48.6 µM

Nc1ncnc2c1nnn2C1C=CC(CP(=O)(O)O)C1 (centres undefined)
inactive: OVCAR-8 > 100 µM | SF-268 > 100 µM | SK-MEL-5 > 100 µM | U-251 > 100 µM | NCI-H460 > 100 µM | COLO 205 > 100 µM | MOLT-4 > 100 µM | UO-31 > 100 µM | UACC-257 > 100 µM | M14 > 100 µM | 786-0 > 100 µM | ACHN > 100 µM | HL-60 > 100 µM | RPMI-8226 > 100 µM | HCT-116 > 100 µM | Malme-3M > 100 µM | LOX IMVI > 100 µM

O=c1cc(-c2ccccc2)oc2cc(OCCCOc3ccc4c(=O)cc(-c5ccccc5)oc4c3)ccc12
inactive: OVCAR-8 > 100 µM | SK-MEL-5 > 100 µM | U-251 > 100 µM | NCI-H460 > 100 µM | COLO 205 > 100 µM | MOLT-4 > 100 µM | SNB-75 47.2 µM | UACC-257 > 100 µM | M14 > 100 µM | 786-0 > 100 µM | ACHN > 100 µM | HL-60 > 100 µM | CCRF-CEM > 100 µM | RPMI-8226 > 100 µM | HCT-116 > 100 µM | Malme-3M > 100 µM | LOX IMVI > 100 µM
